The text below walks through data of patent US8071795B2, “HIF inhibitors” (Emory University, priority 2005, dated 2011).

Each structure is given as a SMILES string.

Data set [1] deals with HIF-dependent luciferase activity. The data set is described as follows: pharmacodynamic BLI study in LN229 HRE-luciferase glioma xenografts. The data set is classed as in vivo, mouse. As to the method: FIG. 19 illustrates a pharmacodynamic study of KCN1 in nu/nu mouse bearing LN229HRE-luci-ferase gliomas. KCN1 (2 mg) dissolved in DMSO was injected in the right hind tumor, and DMSO control in the left hind tumor. The mouse was injected with D-luciferin and imaged by BLI before FIG. 19 (C) and 5 & 28 hrs after injection. It should be noted strong reduction in HIF-dependent luciferase activity in right hind tumor at 5 hrs and partial recovery of HIF signaling after 28 hrs. (n=2).
It is well appreciated that the efficacy of anti-cancer agents in rodents is an imprecise predictor of the success of these drugs in clinical trials. Therefore, evaluating the molecular and mechanistic end points of drug treatment is an important complementary approach to early pre-clinical studies. With this in mind, we sought to determine whether our lead HIF-1 pathway inhibitor (KCN1) can reduce HIF activity in a glioma xenograft model. In a pilot study, we used a mouse bearing 4 xenografts of LN229 cells containing a stable HIF responsive luciferase reporter (size-matched medium sized tumors in the back and small ones in the front). The HIF-dependent luciferase activity in the tumors was detected by non-invasive BLI. As expected, the larger hind tumors produced the strongest luciferase signal, likely due to the increase in the hypoxic volume. […]

The test system of data set [2] is Akt (Serine 473 phosphorylation), PI3K signaling pathway. The data set can be described thus: Akt phosphorylation in response to IGF1. The data set is classed as cell-based. To be noted: 1, 3, and 6 hrs. The procedure:
In addition, experiments focused on whether HIF present in the nucleus of the KCN1 and CoCl2 treated cells was transcriptionally active were performed. […] Third, an experiment focused on whether KCN1 might interfere with HIF synthesis through the PI3 kinase/Akt/mTOR pathway that controls mRNA translation was performed. The effects of KCN1 on the phosphorylation of Akt in response to growth factor IGF1 (insulin growth factor 1) were examined. […] This finding might have therapeutic implications independently of the activities of KCN1 on HIF.

The test system of a further data set is topoisomerase II. The data set is described as follows: kinetoplast DNA decatenation assay. The data set is classed as biochemical. The procedure:
FIG. 15 illustrates that HIF inhibitor F2 (Psammaplin analogue) but not KCN1 inhibits topoisomerase II activity. Purified topo II activity with F2 or KCN1 was analyzed under normoxia using kDNA decatenation assay. To examine the activity, 1% agarose gel with ethidium bromide was used and it enabled to detect catenated kDNA and decatenated kDNA. In lanes 5 and 9, inhibition of topoisomerase II activity was detected as evidenced by the presence of catenated DNA.
Finally, an experiment focused on whether some of the HIF inhibitors might have an effect on topoisomerase function was performed. It has been reported in the literature that some HIF inhibitors may act via a topoisomerase-dependent mechanism (Rapisarda A et al 2004, Cancer Res 64-1475-82). KCN1 and psammaplin analogue F2 (FIG. 8) were tested and their inhibitory effect on topoisomerase II using a kinetoplast DNA decatenation assay (FIG. 15) was examined.

The test system of the next data set is HIF-1α. The data set is described as follows: Western blot of total protein levels in LN229 cell extracts. The data set is classed as cell-based, human. The procedure: (§1) FIG. 11 illustrates an analysis of specificity of KCN1. LN229 cells were pre-treated with KCN1 (25 uM) for 1 h and then put in 1% O2 for […]. Cell extracts were analyzed by Western blot for levels of total proteins (FIG. 11 (A)) and phospho-proteins by multiplex Western FIG. 11 (B)). It should be noted that a strong increase of HIF-1α levels under hypoxia is inhibited by KCN1.
(§2) The above extracts were further analyzed to detect changes in the activity states of key signal transduction proteins by multiplex Western (Kinexus). This method allows the simultaneous screening of 37 different phospho-proteins involved in key cell signaling pathways. […] KCN1 inhibits only HIF-1α under hypoxic conditions (FIG. 11 (C)).

A further data set relates to LN229 glioma xenograft. The data set can be described thus: sc LN229 glioma xenograft growth. Type of data set: in vivo, nude mice. As to the method:
FIG. 20 illustrates that KCN1 inhibits sc LN229 glioma xenograft growth. LN-229 (5×10^6) was implanted in both flanks of nude mice (8/group) and 1 week later started intraperitoneal injections of KCN1 (60 mg/kg; 5 days/week). FIG. 20(A) illustrates tumor volume over time as measured with a caliper.
(§3) KCN1 was formulated in Cremaphor/EtOH for mice delivery and determined empirically (i.e., without prior under-standing of its in vivo pharmacology) whether preliminary anti-tumorigenic effects could be observed. […] (up to 100 mg/kg) injected animals.

The next data set relates to HIF. The data set can be described thus: microscopy of HIF location and HRE-luciferase activity in LN229 cells. Type of data set: cell-based, human. The text has this:
To examine whether KCN1 might interfere with the ability of HIF to translocate to the nucleus, its location was examined by microscopy in LN229 cells containing a stably integrated HRE-luciferase reporter construct. Under hypoxia KCN1 inhibits HIF accumulation and no HIF is seen in the nucleus or cytoplasm. […] Measurement of HIF-induced luciferase activity (lower panel) confirms that HIF is transcriptionally active in the presence of KCN1 in the COCl2 treated cells.
(§4) To gain insight into the possible mechanism of action of KCN1 a number of experiments listed below were performed. First, an experiment focused on whether KCN1 might block HIF at the mRNA or protein level was performed. To examine whether KCN1 might interfere with HIF-1 alpha mRNA synthesis or stability, Northern blots were performed. […] Second, an experiment focused on whether KCN1 might interfere with the ability of HIF to translocate to the nucleus was performed by examining its location by microscopy in LN229 cells. Under hypoxia KCN1 inhibits HIF accumulation, confirming the Western blot results and no HIF is seen in the nucleus or cytoplasm.
In addition, experiments focused on whether HIF present in the nucleus of the KCN1 and CoCl2 treated cells was transcriptionally active were performed. […]

Data set [3] can be described thus: PK study in U87MG-EGFRvIII brain tumor model, HPLC. The data set is classed as in vivo, mice. To be noted: iv. 35 mg/kg; 6, 18 and 24 hrs. As to the method: FIG. 18 illustrates a PK study of KCN1 in a brain tumor model. FIG. 18(A) illustrates MRI of U87MG-EGFRvIII grown in mice brain. FIG. 18(B) illustrates the kinetics of KCN1 accumulation in normal and tumoral brain after iv. injection at 35 mg/kg.
The BBB may constitute an obstacle to drug delivery. To examine whether KCN1 would reside in the brain over a longer period of time and whether it would accumulate in higher amounts in the tumor versus normal brain we carried out a preliminary PK experiment. Nude mice carrying U87MG-EGFRvIII tumors were injected iv. with KCN1 and sacrificed at 6, 18 and 24 hrs. KCN1 concentration in the brain tumor and contra-lateral normal brain was performed by HPLC.

Another data set can be described thus: experimental LogP. The data set is classed as physicochemical. An excerpt: Four grams of KCN1 have been synthesized for initial PK and anti-tumor studies. FIG. 10 illustrates an illustrative embodiment of a method for forming KCN1.
Data set [4] can be described thus: tolerability in injected animals. The data set is classed as in vivo. To be noted: it. and iv. (up to 100 mg/kg). As to the method: as §3
Another data set addresses HIF-1/HRE pathway. The data set is described as follows: LN229-HRE-AP hypoxia-inducible alkaline phosphatase reporter bioassay. Type of data set: cell-based, human. The procedure:
Genetically engineered LN229 cells (a human glioma cell line) which stably express the alkaline phosphatase reporter gene under the control of six copies of a hypoxia-responsive element was used to identify small-molecule inhibitors of the HIF-1/HRE pathway. The engineered LN229 cell line is disclosed in U.S. Provisional Patent Application No. 60/235,283, which is incorporated by reference in its entirety herein. Cells were seeded at 40,000 cells per well in 96-well plates. Compounds of interest with 2,2-dimethylbenzopyran motifs were added and the plates were incubated under hypoxia (1% O2, 5% CO2 and 94% N2) at 37° C. for 24 h. Cells were then washed with phosphate-buffered saline and incubated with p-nitrophenyl phosphate at 37° C. for 30 min. The reaction was terminated by adding 3 N NaOH and the plates were read for absorbance at 405 nm. The anti-HIF-1/HRE activity of each compound was quantified as the decrease of percentage of alkaline phosphatase (AP) activity compared to the untreated control cells. […]
To screen for small molecule HIF-1 pathway inhibitors, a cell-based assay was established by stably transfecting a glioma cell line with a hypoxia-inducible alkaline phosphatase (AlkPhos) expression vector (LN229-HRE-AP). Exposure of the cells to hypoxia (1% O2) induced reporter gene expression, which could be detected and quantitated by a […] reaction. […]

Data set [5] relates to phospho-proteins involved in key cell signaling pathways. The data set is described as follows: multiplex Western (Kinexus) of phospho-proteins in LN229 cell extracts. Type of data set: cell-based, human. The conditions noted are these: 27 of 37 phospho-proteins. The procedure:
as §1, §2

The next data set concerns HIF-1 alpha mRNA. The data set is described as follows: Northern blot of HIF-1 alpha mRNA. Type of data set: cell-based. The conditions noted are these: with or without KCN1 treatment. As to the method: To examine whether KCN1 might interfere with mRNA synthesis or stability Northern blots were performed.
as §4

Turning to `COc1ccc(S(=O)(=O)N(Cc2ccc3c(c2)C=CC(C)(C)O3)c2ccccc2)cc1OC` [KCN1], the “reduction of HIF-dependent luciferase activity in injected tumor” value in data set [1] (2 mg in DMSO intratumoral, 5 hrs) was above 90%. Further, the “HIF-dependent luciferase activity in injected tumor” value in data set [1] (after 28 h) was “recovered”. Also, in [2], the “IGF1-induced phosphorylation of Akt on Serine 473” value is listed as “not inhibited” and the phospho-Akt level result was “increase in phospho-Akt is observed”. Moreover, the “topo II activity” value with topoisomerase II (5-25 uM) was “did not inhibit”. The “HIF-1α protein level under hypoxia” value in the data set with HIF-1α (LN229 cells, KCN1 25 uM, 1% O2, 5 hrs) is recorded as “strong anti-HIF-1α activity is detected”. The “stabilization of HIF-1alpha under normoxia” value in the data set on HIF-1α (induced by CoCl2, desferroxiamine or MG132) is “is not inhibited”. For the same compound, the “weight of dissected tumors, fold less than control” value in the data set with LN229 glioma xenograft (60 mg/kg intraperitoneal, 5 days/week, at termination) is given as around 6 fold. In addition, the tumor growth entry with LN229 glioma xenograft (Cremaphor/EtOH formulation) was “strong and sustained inhibition of tumor growth”. Besides, the “luciferase activity of HRE-luciferase reporter” value with HIF (KCN1 and CoCl2 treated cells) is “remained active”. In addition, the “nuclear accumulation of HIF” value in the data set on HIF (LN229 cells, CoCl2 conditions) is “does not interfere with nuclear accumulation”. For the same compound, the “distribution between brain tumor and contra-lateral normal brain” value in data set [3] was “preferentially accumulates in and is retained in the brain tumor”. Besides, in the data set “experimental LogP”, the “experimental LogP” value is reported as 3.9. Moreover, in [4], the toxicity result is recorded as “no apparent toxicity was observed”. At HIF-1/HRE pathway (LN229-HRE-AP cells, hypoxia 1% O2), this compound yielded an IC50 of around 4 µM. Further, the “inhibitory activity relative to initial HIF-inhibitor 85D5R” value with HIF-1/HRE pathway (SAR, modifications in regions I and II) is given as “improved acitivities”. Besides, the “effects on phospho-proteins with detectable phosphorylation” value in data set [5] is listed as below 1.5 fold. The “HIF-1alpha mRNA levels” value in the data set with HIF-1 alpha mRNA is “remained constant”.

For the compound `COc1cc([C@@H]2c3cc4c(cc3[C@@H](O[C@@H]3O[C@@H]5CO[C@@H](C)O[C@H]5[C@H](O)[C@H]3O)[C@H]3COC(=O)[C@H]23)OCO4)cc(OC)c1O` [etoposide, reference compound], the “topo II activity” value with topoisomerase II (100 uM) is “inhibitory activity observed”.
